From patent publication US12077503B2, “Substituted cyclic amides and their use as herbicides” (FMC CORPORATION, priority 2015, dated 2024) come the findings set out here.

Holding throughout (assay type): in vivo
Test [1] concerns sedge, umbrella (small-flower umbrella sedge, Cyperus difformis). As to the kind of experiment: Test B flooded paddy test. The note with it: Cyperus difformis, Flood, 250 g ai/ha; scale of 0 to 100 where 0 is no effect and 100 is complete control; read-out: Sedge, Umbrella plant response rating. An outline of the steps: (§1)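 2-leaf plants; pots flooded 3 cm over soil; cpd added to paddy water; depth held; greenhouse 13–15 d; visual rating vs controls, 0 = no effect, 100 = complete control.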

Another test has as its system rice (Oryra sativa). Kind of test: Test B flooded paddy test. The note with it: Oryza sativa, Flood, 250 g ai/ha; scale of 0 to 100 where 0 is no effect and 100 is complete control; read-out: Rice plant response rating. Summed up: as §1
The subject of test [2] is ducksalad (Heteranthera limosa). Kind of test: Test B flooded paddy test. The note with it: Heteranthera limosa, Flood, 250 g ai/ha; scale of 0 to 100 where 0 is no effect and 100 is complete control; read-out: Ducksalad plant response rating. An outline of the steps: as §1
The test system of test [3] is barnyardgrass (Echinochloa crus-galli). Kind of test: Test B flooded paddy test. The note with it: Echinochloa crus-galli, Flood, 250 g ai/ha; scale of 0 to 100 where 0 is no effect and 100 is complete control; read-out: Barnyardgrass plant response rating. Summed up: as §1
The subject of test [4] is ryegrass, Italian (Italian ryegrass, Lolium multiflorum). As to the kind of experiment: Test A preemergence. As to conditions: Lolium multiflorum, pre-emergence, 240 h; for pest or weed control at 125 g/ha: 125 g ai/ha, preemergence, 0 to 100 scale where 0 is no effect and 100 is complete control, read-out: Ryegrass, Italian plant response rating; for pest or weed control at 500 g/ha: 500 g ai/ha, Preemergence, visual injury vs untreated controls after approximately 10 d, read-out: Ryegrass, Italian plant response rating (0 to 100 scale where 0 is no effect and 100 is complete control). Summed up:
(§2)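 Compounds were formulated in a non-phytotoxic solvent mixture with surfactant and applied as a preemergence directed soil spray after seeding, or sprayed postemergence over plants 2 to 10 cm tall at the one- to two-leaf stage. Evaluation after about 10 d compared treated with untreated controls, using a scale from 0 (no effect) to 100 (complete control).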

The test system is the same in test [5]. Kind of test: Test A postemergence. The note with it: Lolium multiflorum, post-emergence, 240 h, 125 g ai/ha, postemergence, visual injury rating after approximately 10 d; read-out: Ryegrass, Italian plant response rating (0 to 100 scale, 0 no effect, 100 complete control). An outline of the steps: as §2
The next test has as its system Kochia (Kochia scoparia). As to the kind of experiment: Test A postemergence. As to conditions: Bassia scoparia, post-emergence, 240 h, 125 g ai/ha, postemergence, visual injury rating after approximately 10 d; read-out: Kochia plant response rating (0 to 100 scale, 0 no effect, 100 complete control). An outline of the steps: as §2
Test [6] deals with pigweed (Amaranthus retroflexus). Kind of test: Test A postemergence. As to conditions: Amaranthus retroflexus, post-emergence, 240 h, 125 g ai/ha, postemergence, visual injury rating after approximately 10 d; read-out: Pigweed plant response rating (0 to 100 scale, 0 no effect, 100 complete control). Summed up: as §2
Test [7] has as its system Galium (catchweed bedstraw, Galium aparine). As to the kind of experiment: Test A postemergence. The note with it: Galium, post-emergence, 240 h, 125 g ai/ha, postemergence, visual injury rating after approximately 10 d; read-out: Galium plant response rating (0 to 100 scale, 0 no effect, 100 complete control). Summed up:
as §2

The test system of test [8] is giant foxtail (Setaria faberii). As to the kind of experiment: Test A postemergence. The note with it: Setaria faberi, post-emergence, 240 h, 125 g ai/ha, postemergence, visual injury rating after approximately 10 d; read-out: Foxtail, Giant plant response rating (0 to 100 scale, 0 no effect, 100 complete control). Summed up:
as §2

Another test deals with corn (Zea mays). As to the kind of experiment: Test A postemergence. As to conditions: Zea mays, post-emergence, 240 h, 125 g ai/ha, postemergence, visual injury rating after approximately 10 d; read-out: Corn plant response rating (0 to 100 scale, 0 no effect, 100 complete control). An outline of the steps:
as §2

The test system of test [9] is blackgrass (Alopecurus myosuroides). As to the kind of experiment: Test A postemergence. As to conditions: Alopecurus myosuroides, post-emergence, 240 h, 125 g ai/ha, postemergence, visual injury rating after approximately 10 d; read-out: Blackgrass plant response rating (0 to 100 scale, 0 no effect, 100 complete control). An outline of the steps: as §2
Test [10] deals with wheat (Triticum aestivum). As to the kind of experiment: Test A postemergence. As to conditions: Triticum aestivum, post-emergence, 240 h, 125 g ai/ha, postemergence, visual injury rating after approximately 10 d; read-out: Wheat plant response rating (0 to 100 scale, 0 no effect, 100 complete control). An outline of the steps:
as §2

Test [11] relates to barnyardgrass (Echinochloa crus-galli). Kind of test: Test A postemergence. The note with it: Echinochloa crus-galli, post-emergence, 240 h, 125 g ai/ha, postemergence, visual injury rating after approximately 10 d; read-out: Barnyardgrass plant response rating (0 to 100 scale, 0 no effect, 100 complete control). Summed up: as §2
In test [12] the test system is ragweed (common ragweed, Ambrosia elatior). Kind of test: Test A postemergence. The note with it: Ambrosia artemisiifolia, post-emergence, 240 h, 125 g ai/ha, postemergence, visual injury rating after approximately 10 d; read-out: Ragweed plant response rating (0 to 100 scale, 0 no effect, 100 complete control). An outline of the steps:
as §2

`COc1c(F)ccc([C@H]2CN(C)C(=O)[C@@H]2C(=O)Nc2ccccc2C(F)(F)F)c1Cl` [Compound 896]: the pest or weed control at 250 g/ha in test [1] came out at 0%; with rice (Oryra sativa) it was 20%; in test [2], 25%; in test [3], 45%. Also, the pest or weed control at 125 g/ha amounted to 40% in test [4]; 50% in test [5]; 20% with Kochia (Kochia scoparia); 20% in test [6]; 40% in [7]; 90% in test [8]. Further, the pest or weed control at 125 g/ha in [9] is 40%; in [11] it was 90%; in [12], 0%. The pest or weed control at 500 g/ha in [4] came to 70%. The plant injury at 125 g/ha was determined as 20% with corn (Zea mays) and 30% in test [10].

In the case of `COc1c(F)ccc([C@H]2CN(C)C(=O)[C@@H]2C(=O)Nc2ccccc2S(C)(=O)=O)c1Cl` [Compound 897], the pest or weed control at 250 g/ha in test [1] turned out to be 0%; in the test on rice (Oryra sativa) it was 0%; in [2], 45%; in test [3], 45%. Further, the pest or weed control at 125 g/ha amounted to 20% in [4]; 20% in [5]; 30% in the test with Kochia (Kochia scoparia); 0% in [6]; 40% in test [7]; 80% in test [8]. For the same compound, the pest or weed control at 125 g/ha turned out to be 30% in test [9], 90% in test [11] and 20% in test [12]. Besides, the pest or weed control at 500 g/ha in test [4] came out at 50%. Besides, the plant injury at 125 g/ha (in the test with corn (Zea mays); in test [10]) was 30% in each case.

Turning to `CCOc1ccc([C@H]2CN(C)C(=O)[C@@H]2C(=O)Nc2cccc(F)c2F)cc1` [Compound 904], the pest or weed control at 250 g/ha (in test [1]; with rice (Oryra sativa); in test [2]; in test [3]) was 0% throughout. In addition, the pest or weed control at 125 g/ha was 0% in [4]; 0% in test [5]; 30% in the test on Kochia (Kochia scoparia); 0% in test [6]; 30% in test [7]; 80% in [8]. For the same compound, the pest or weed control at 125 g/ha in [9] came out at 30%; in [11], 80%; in [12], 0%. Besides, the pest or weed control at 500 g/ha in test [4] was determined as 0%. Further, the plant injury at 125 g/ha (in the test on corn (Zea mays); in test [10]) was 0% throughout.

As for `Cc1cc(C)cc([C@H]2CN(C)C(=O)[C@@H]2C(=O)Nc2cccc(F)c2F)c1` [Compound 911], the pest or weed control at 250 g/ha in test [1] was determined as 0%; in the test with rice (Oryra sativa) it was 0%; in test [2] it was 75%; in test [3] it was 80%. Further, the pest or weed control at 125 g/ha in test [4] was determined as 70%; in test [5] it was 70%; in the test with Kochia (Kochia scoparia), 50%; in test [6], 0%; in test [7] it was 40%; in test [8], 90%. The values for the pest or weed control at 125 g/ha in test [9], in test [11] and in test [12] were 50%, 90% and 0%, respectively. In test [4], the pest or weed control at 500 g/ha amounted to 90%. The values for the plant injury at 125 g/ha (with corn (Zea mays); in test [10]) were 80% and 50%, respectively.

Consider `CCc1cc([C@H]2CNC(=O)[C@@H]2C(=O)Nc2ccccc2F)cs1` [Compound 913], for which the pest or weed control at 250 g/ha in test [1] was found to be 0%; with rice (Oryra sativa), 0%; in test [2] it was 90%; in test [3] it was 0%. The pest or weed control at 125 g/ha in test [4] came to 0%; in test [5], 0%; in the test with Kochia (Kochia scoparia) it was 0%; in [6], 0%; in test [7], 30%; in test [8], 30%. Further, the pest or weed control at 125 g/ha in test [9] was 0%; in test [11], 90%; in test [12], 30%. Moreover, in test [4], the pest or weed control at 500 g/ha is 40%. Also, the plant injury at 125 g/ha (with corn (Zea mays); in [10]) was 0% throughout.
